Data as given in patent publication US20230151342A1, “ZINC FINGER DEGRADATION DOMAINS” (THE BROAD INSTITUTE, INC, priority 2020, published 2023).
Read-outs that look alike come from different tables or passages of the source. One block for each molecule: values may come before it. Where no end group is shown, it is not given here.

What was measured:
[1] = system: Jurkat cells expressing individual zinc fingers in the protein degradation reporter; experiment: Validation of individual zinc fingers in eGFP/mCherry protein degradation reporter (single reporter degradation experiments); format: cell-based
Method: FIG. 18A-18B Validation of individual hybrid zinc finger degrons. (FIG. 18A) Vehicle control-normalized eGFP/mCherry fluorescence ratios measured by flow cytometry for Jurkat cells expressing the indicated minimal 23 amino acid zinc finger degron constructs after treatment with pomalidomide or vehicle control. Experiments were performed in triplicate and error bars indicate standard deviation. […] (FIG. 18B) IC50 values for lenalidomide- or pomalidomide-induced degradation of endogenous and hybrid zinc fingers calculated from single reporter degradation experiments. (FIG. 18C) Jurkat cells expressing the 19BBz-d91.3 CAR were treated overnight with lenalidomide and the E1 inhibitor MLN7243 (500 nM), the Neddylation inhibitor […] (5000 nM), the lysosomal acidification inhibitor Chloroquine (50,000 nM), or the lysosomal acidification inhibitor Bafilomycin A (100 nM). CAR degradation requires ubiquitin ligase and Cullin-RING ligase function, and is insensitive to inhibition of autophagy.
FIG. 23. Validation of individual hybrid zinc finger degrons. Individual 23 amino acid zinc finger domains were cloned into the Cilantro 2 protein degradation reporter lentivector. Jurkat cells were transduced with each of these viruses. The GFP/mCherry ratio was calculated in the presence of various thalidomide analogs, indicative of drug-dependent degradation. Dark Gray=hybrid zinc fingers. Light Gray=endogenous zinc fingers. Dotted line=ZFP91-IKZF3.
Jurkat cells were created expressing each of the 6 hybrid and 8 associated parent ZFs and subjected them to a range of doses of lenalidomide, pomalidomide, avadomide, and iberdomide. […] The IC50 for degradation was lower for the 6 hybrid ZFs than their parent ZFs (FIG. 18B). […] One of these validated hybrids, ZFP91-IKZF3, was chosen with 1.6-6.0-times lower IC50 for degradation than IKZF3 across the tested thalidomide derivatives (FIG. 11G) hereafter termed “d91.3”, as a super degron tag for further CAR engineering, which was incorporated for evaluation of on and off-switch CARs.
Jurkat cells expressing a library of 440 C2H2 zinc fingers in a eGFP/mCherry protein degradation reporter vector were treated with DMSO or thalidomide analog drug for 16 hours. mCherry^+eGFP^low cell populations were isolated by FACS in triplicate, and the relative frequency of individual ZFs was quantified with next-generation sequencing. For validation, Jurkat cells were engineered to express individual zinc fingers in the protein degradation reporter; the eGFP:mCherry ratio was determined by flow cytometry after 16 hour incubation with varying concentrations of thalidomide analogs.

[2] = target: CRBN (substrate receptor of the CRL4^CRBN E3 ubiquitin ligase) (UniProt Q96SW2 1-442); experiment: cell-based or functional assay
[3] = CC-122-induced degradation, eGFP:mCherry ratio, 16 hour incubation, read-out: EC50 cc122
[4] = lenalidomide-induced degradation, eGFP:mCherry ratio, 16 hour incubation, read-out: EC50 len
[5] = pomalidomide-induced degradation, eGFP:mCherry ratio, 16 hour incubation, read-out: EC50 pom
[6] = lenalidomide, repeat experiment, read-out: EC50 len repeat

Sequence of CRBN (substrate receptor of the CRL4^CRBN E3 ubiquitin ligase) (Q96SW2 whole entry): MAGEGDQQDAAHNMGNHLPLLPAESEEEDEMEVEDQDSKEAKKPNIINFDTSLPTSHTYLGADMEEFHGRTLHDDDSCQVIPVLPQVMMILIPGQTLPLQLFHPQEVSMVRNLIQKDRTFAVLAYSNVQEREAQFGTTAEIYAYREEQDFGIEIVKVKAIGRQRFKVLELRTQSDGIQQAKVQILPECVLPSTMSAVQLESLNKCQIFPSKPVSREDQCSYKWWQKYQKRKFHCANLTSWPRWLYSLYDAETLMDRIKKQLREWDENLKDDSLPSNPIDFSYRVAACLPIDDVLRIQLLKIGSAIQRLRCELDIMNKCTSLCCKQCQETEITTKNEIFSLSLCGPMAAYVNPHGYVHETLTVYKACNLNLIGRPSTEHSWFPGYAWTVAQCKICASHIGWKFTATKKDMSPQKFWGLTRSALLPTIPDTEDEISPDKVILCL

- EC50 [1, 3]: 73.6 nM
- EC50 [1, 4]: 78.6 nM
- EC50 [1, 5]: 7.41 nM
Molecule: LQCEVCGFQCRQRASLKYHMTKH [HZnF_01, reference compound]

- EC50 [1, 3]: 2.42 nM
- EC50 [1, 6]: 6.59 nM
- EC50 [1, 4]: 12.2 nM
- EC50 [1, 5]: 0.212 nM
Molecule: LQCEICGYQCRQPKSLARHLRLH [HZnF_22]

- EC50 [1, 3]: 33.5 nM
- EC50 [1, 6]: 28.2 nM
- EC50 [1, 4]: 21.9 nM
- EC50 [1, 5]: 3.1 nM
Molecule: FQCNQCGASFTQKGNLLRHIKLH [HZnF_27, reference compound]

- EC50 [1, 3]: 33 nM
- EC50 [1, 4]: 57.8 nM
- EC50 [1, 5]: 5.47 nM
Molecule: LQCEICGFTCRQKASLNWHMKKH [HZnF_13, reference compound]

- EC50 [1, 3]: 5.22 nM
- EC50 [1, 6]: 6.09 nM
- EC50 [1, 4]: 4.59 nM
- EC50 [1, 5]: 1.05 nM
Molecule: FQCNQCGASFTQPKSLARHLRLH [HZnF_20]

- EC50 [1, 3]: 7.07 nM
- EC50 [1, 4]: 22.5 nM
- EC50 [1, 5]: 1.86 nM
Molecule: LQCEICGYQCRRLSTLIQHQKVH [HZnF_1, label misprinted]

- EC50 [1, 3]: 0.983 nM
- EC50 [1, 6]: 4.66 nM
- EC50 [1, 4]: 6.45 nM
- EC50 [1, 5]: 0.146 nM
Molecule: LQCEICGFTCRQPKSLARHLRLH [HZnF_23]

- EC50 [1, 3]: 73.4 nM
- EC50 [1, 4]: 149 nM
- EC50 [1, 5]: 5.29 nM
Molecule: LQCEICGFTCRRHSHLIEHLKRH [HZnF_17]

- EC50 [1, 3]: 0.693 nM
- EC50 [1, 6]: 3.53 nM
- EC50 [1, 4]: 6.64 nM
Molecule: LQCEICGYQCRRKDRMSYHVRSH [HZnF_25]
- pomalidomide-dependent degradation compared with parent ZF ([1]; pomalidomide): more efficient pomalidomide-dependent degradation than either parent ZF

- EC50 [1, 3]: 10.1 nM
- EC50 [1, 4]: 18.3 nM
- EC50 [1, 5]: 3.61 nM
Molecule: FQCNQCGASFTTKGSLIRHHRRH [HZnF_08]

- EC50 [1, 3]: 176 nM
- EC50 [1, 4]: 100 nM
Molecule: YSCPVCGLRFKRKDRMSYHVRSH [HZnF_02, reference compound]

- EC50 [1, 3]: 125 nM
- EC50 [1, 4]: 248 nM
- EC50 [1, 5]: 16.9 nM
Molecule: YQCKVCGRAFKRVSHLTVHYRIH [8HZnF__19, label misprinted, reference compound]

- EC50 [1, 3]: 101 nM
- EC50 [1, 4]: 324 nM
- EC50 [1, 5]: 14.1 nM
Molecule: LQCEICGFTCRWSSHYQYHLRQH [HZnF_04]

- EC50 [1, 3]: 2.46 nM
- EC50 [1, 6]: 8.23 nM
- EC50 [1, 4]: 11.2 nM
- EC50 [1, 5]: 0.311 nM
Molecule: FQCPICGLVIKRHSHLIEHLKRH [HZnF_21]

- EC50 [1, 3]: 35.2 nM
- EC50 [1, 4]: 71.9 nM
- EC50 [1, 5]: 5.12 nM
Molecule: YQCKVCGRAFKRLSTLIQHQKVH [HZnF_15]

- EC50 [1, 3]: 29.5 nM
- EC50 [1, 4]: 55.2 nM
- EC50 [1, 5]: 4.47 nM
Molecule: YRCRACGRACSRLSTLIQHQKVH [HZnF_03, reference compound]

- EC50 [1, 3]: 37 nM
- EC50 [1, 4]: 75.1 nM
Molecule: LQCEICGYQCRQRASLNWHMKKH [HZnF_12, reference compound]

- EC50 [1, 3]: 56.1 nM
- EC50 [1, 4]: 433 nM
- EC50 [1, 5]: 21.9 nM
Molecule: FQCNQCGASFTRLSTLIQHQKVH [HZnF_06]

- EC50 [1, 3]: 50.2 nM
- EC50 [1, 4]: 60.5 nM
- EC50 [1, 5]: 8.06 nM
Molecule: FQCPICGLVIKRKSYWKRHMVIH [HZnF_16, reference compound]

- EC50 [1, 3]: 2.93 nM
- EC50 [1, 4]: 48 nM
- EC50 [1, 5]: 8.55 nM
Molecule: FVCPRCGRGFSQPKSLARHLRLH [HZnF_05, reference compound]

- EC50 [1, 3]: 58.5 nM
- EC50 [1, 4]: 34.8 nM
- EC50 [1, 5]: 11.3 nM
Molecule: HECKLCGASFRTKGSLIRHHRRH [HZnF_07, reference compound]

- EC50 [1, 3]: 5.67 nM
- EC50 [1, 6]: 15 nM
- EC50 [1, 4]: 10.1 nM
- EC50 [1, 5]: 0.46 nM
Molecule: LQCEVCGFQCRQPKSLARHLRLH [HZnF_24]

- EC50 [1, 3]: 13.4 nM
- EC50 [1, 6]: 29.4 nM
- EC50 [1, 4]: 22.9 nM
- EC50 [1, 5]: 0.78 nM
Molecule: LQCEICGFTCRQKGNLLRHIKLH (FHCNQCGASFTQKGNLLRHIKLH) [HZnF_26]

- EC50 [1, 3]: 179 nM
- EC50 [1, 4]: 59.9 nM
- EC50 [1, 5]: 18.8 nM
Molecule: FACVICGRKFRNRGLMQKHLKNH [HZnF_11, reference compound]

- EC50 [1, 3]: 32.4 nM
- EC50 [1, 4]: 55.4 nM
- EC50 [1, 5]: 9.05 nM
Molecule: FQCNQCGASFTRHSHLIEHLKRH [HZnF_10]

- EC50 [1, 3]: 68.2 nM
- EC50 [1, 5]: 0.224 nM
Molecule: YGCNECGKNFGRHSHLIEHLKRH [HZnF_09, reference compound]

- EC50 [1, 3]: 26 nM
- EC50 [1, 4]: 83.1 nM
- EC50 [1, 5]: 5.19 nM
Molecule: YQCKVCGRAFKQKGNLLRHIKLH [HZnF_14]

- EC50 pom: pomalidomide-induced degradation, eGFP/mCherry reporter, Jurkat [2]: 32.4 nM
B1: PATZ1_383_405-PATZ1_383_405_J1 (peptide)
chain: YSCPVCGLRFKRKDRMSYHVRSH
modifications: not fully specified; cysteine pairing not given here

- EC50 pom: pomalidomide-induced degradation, eGFP/mCherry reporter, Jurkat [2]: 0.16 nM
B2: ZN653_556_578-PATZ1_383_405_J1 (peptide)
chain: LQCEICGYQCRRKDRMSYHVRSH
modifications: not fully specified; cysteine pairing not given here

- EC50 pom: pomalidomide-induced degradation, eGFP/mCherry reporter, Jurkat [2]: 5.17 nM
B3: ZN653_556_578-ZN653_556_578_J1 (peptide)
chain: LQCEICGYQCRQRASLNWHMKKH
modifications: not fully specified; cysteine pairing not given here
